Consider seven compounds from patent US20250296955A1, “PIN1 TARGETING COMPOUNDS AND DEGRADERS AND METHODS THEREOF” (The Regents of the University of California, priority 2024, published 2025).

Test [1] concerns the target T1, Pin1 (Homo sapiens, UniProt Q13526). Put plainly: Pin1 degradation in MIA PaCa-2 cells (western blot). As to conditions: after 24 h (FIG. 14C). The test is classed as cell-based. The protocol:
BxPC3, MIA PaCa-2, PANC-1, MDA-MB-231, and PC3 were obtained from the American Type Culture Collection (ATCC) and A549 NucLight Red cells were purchased from Essen Bioscience. BxPC3 and PC3 cells were cultured in RPMI (Corning) while PANC-1 cells were cultured in DMEM (Corning). MIA PaCa-2 cells were also cultured in DMEM, but with the addition of 2.5% horse serum. A549 NucLight cells were cultured in a Ham's F-12 nutriend mixture with GlutaMAX-1 (Gibco). All of the culture media were supplemented with 10% FBS. MDA-MB-231 cells were nuclear-labeled red (MDA-MB-231 NucLight Red) with the IncuCyte NucLight lentivirus reagent (Essen Bioscience) according to the manufacturer's protocol and were cultured in DMEM supplemented with 10% FBS and 1 μg/mL puromycin. Cells were all maintained at 37° C. in a humidified incubator with 5% CO2.
At the end of the treatments, cells were lysed with a lysis buffer containing 20 mM Tris, pH 7.4, 120 mM NaCl, 1% Triton X-100, 0.5% sodium deoxycholate, 0.1% SDS, 1% IGEPAL, 5 mM EDTA, protease inhibitor cocktail and PhosSTOP (Sigma-Aldrich). Lysates were then centrifuged at 16,000×g for 20 min at 4° C. and supernatants were collected. Protein concentrations were determined using the Pierce BCA Protein Assay Kit (ThermoFisher Scientific) according to the manufacturer's instruction. […]
On the technique in general: In western blotting, separated proteins are transferred to a membrane and probed.

The target of test [2] is T1, Pin1. Put plainly: DELFIA displacement assay (displacement of biotinylated D-peptide from 6His-Pin1). It counts as binding. Also noted: human Pin1 (residues 1-163); made in house; host or cells: E. coli BL21 (DE3) gold pLysS. An excerpt:
(§1) Important to the success of structure activity relations studies, robust biochemical, biophysical, and cell-based assays were implemented that enabled rapid and iterative evaluations of test Pin1 targeting agents. First, the DELFIA (Dissociation-enhanced lanthanide fluorescent immunoassay) assay platform was used to derive a robust heterogeneous assay to monitor the ability of test agents to displace the binding between Pin1 and the D-Peptide (Table 1), which was obtained in a biotinylated form (FIG. 10). […] Second, for an orthogonal biophysical assay denaturation thermal shift measurements were used. Pin1 was incubated with vehicle control (buffer with 1% DMSO), or test agents at protein: ligand ratio of 1:2 (20 μM protein-40 μM compound) for 10 min at 10° C. in the presence of the fluorescent dye SYPRO Orange. The samples were gradually exposed to increasing temperature (linear gradient from 10° C. to 95° C.), causing the protein to unfold. This unfolding allowed the fluorescent dye to bind to the protein's exposed hydrophobic residues, resulting in an increase in fluorescence. The thermal shift assay measures the protein's melting temperature (Tm), which is the temperature at which the protein denatures by 50%. Ligands can affect a protein target to thermal denaturation, which could manifest in a positive or negative shift in the protein denaturation temperature (ΔTm) (Bai N, Roder H, Dickson A, & Karanicolas J (2019) Scientific Reports 9; and Kranz J K & Schalk-Hihi C (2011) Fragment-Based Drug Design: Tools, Practical Approaches, and Examples 493:277-298). Using these two assays, a series of commercially available Pin1 inhibitors were profiled (Table 1). The non-covalent agent D-peptide resulted only moderately active, with an IC50 value of ˜3 μM that closely resembled the dissociation constant for this agent determined via isothermal titration calorimetry, and the ˜ 3 μM IC50 value as reported by a fluorescence polarization assay (Pinch B J, et al. (2020) Nat Chem Biol 16(9):979-987). […] (Table 1) was observed.
For the reported covalent agents such as sulfopin (Dubiella C, et al. (2021) Nat Chem Biol 17(9):954-963), BJP-07-017-3 (Pinch B J, et al. (2020) Nat Chem Biol 16(9):979-987), or KPT-6566 (Campaner E, et al. (2017) Nat Commun 8:15772), a 6-h pre-incubation period was included in the DELFIA assay to allow the covalent reaction to take place. For those agents, IC50 values that fell in the low nanomolar range were observed, consistent with what was reported previously for those compounds. […] To make those determinations in a broader panel of cancer cell lines three pancreatic cancer cell lines, BxPC3, MIA-PaCa-2, and PANC-1, the breast cancer cell line MDA-MB-231, the prostate cancer cell line PC3, and the non-small cell lung cancer cell line A549 were chosen. Each cell line represents various states of KRAS activating mutations (for example BxPC3 is wt-KRAS, while MIAPaCa2 carries the KRAS(G12C) mutation, and the PANC-1 the KRAS(G12D) (Miquel M, Zhang S, & Pilarsky C (2021) Front Cell Dev Biol 9:748631), A549 is KRAS(G12S) (Wang H, et al. (2019) EBioMedicine 49:106-117), MDA-MB-231 is KRAS(G13D) (Kim R K, et al. (2015) Exp Mol Med 47(1):e137), PC3 is wt-KRAS (Bouali S, et al. (2009) Oncol Rep 21(3):731-735). Pin1 protein levels in these cell lines were established using a specific Pin1 antibody in western blot analyses (FIG. 1A). The data confirmed that all these selected human cancer cell lines expressed a significant level of Pin1 (FIG. 1A).
Each well of 96-well streptavidin-coated plates (PerkinElmer) was incubated with 100 μL of 200 nM biotinylated D-peptide for 2 h and washed 3 times with a wash solution (PerkinElmer). Subsequently, a mixture containing Pin1, and a serial dilution of the test compounds were pre-incubated for 6 h. Eu-N1-labeled anti-6x-His antibody (PerkinElmer, 1:2000) was then added to this mixture and further incubated in the biotinylated D-peptide-bound plates for another 2 h. […]

Test [3] has as its target T1, Pin1. Put plainly: Denaturation thermal shift assay (SYPRO Orange). The test is classed as binding. Also noted: human Pin1 (residues 1-163); made in house; host or cells: E. coli BL21 (DE3) gold pLysS. As to conditions: for ΔTm (° C.) 30 min: Table 1, Protein:compound 1:2, 20X Sypro Orange, 50 mM phosphate pH 7.5, 150 mM NaCl, 3% DMSO; for ΔTm: running text and figure legends.
Text: as §1
Thermal shift assays for Pin1 alone and in the presence of the inhibitors were obtained with a BioRad CFX Connect Real-Time PCR Detection System. Each data point was collected in quadruplicate. Each sample was prepared using buffer 50 mM Phosphate pH 7.5, 150 mM NaCl, 1% DMSO. Protein: ligand ratio used was 1:2 (20 μM protein-40 μM compound), and SYPRO Orange was used. Incubation of the Pin1 protein with the compounds was performed at 10° C. for 10 min. Samples were then heated from 10 to 95° C. with heating increments of 0.05° C., over 30 min. Fluorescence intensity was measured within the excitation/emission ranges 470-505/540-700 nm.

The target of test [4] is T1, Pin1. Briefly: Pin1 degradation in BxPC3 cells (western blot). The test is classed as cell-based. As to conditions: Bx-PC3 cell line, 25 μM, 24 h (FIG. 1B). The text has this:
Next, each cell line was exposed to a relatively high concentration of each of the Pin1 inhibitors from Table 1 and measured their ability to cause Pin1 degradation in the Bx-PC3 cell line under the experimental conditions reported in FIG. 1B. […] It was hypothesized that this observed degradation in the series correlated with the increased sensitivity of Pin1 to thermal degradation induced by BJP-07-017-3 in vitro (Table 1).
(§2) BxPC3, MIA PaCa-2, PANC-1, MDA-MB-231, and PC3 were obtained from the American Type Culture Collection (ATCC) and A549 NucLight Red cells were purchased from Essen Bioscience. BxPC3 and PC3 cells were cultured in RPMI (Corning) while PANC-1 cells were cultured in DMEM (Corning). MIA PaCa-2 cells were also cultured in DMEM, but with the addition of 2.5% horse serum. A549 NucLight cells were cultured in a Ham's F-12 nutriend mixture with GlutaMAX-1 (Gibco). All of the culture media were supplemented with 10% FBS. […]
(§3) At the end of the treatments, cells were lysed with a lysis buffer containing 20 mM Tris, pH 7.4, 120 mM NaCl, 1% Triton X-100, 0.5% sodium deoxycholate, 0.1% SDS, 1% IGEPAL, 5 mM EDTA, protease inhibitor cocktail and PhosSTOP (Sigma-Aldrich). […] Protein concentrations were determined using the Pierce BCA Protein Assay Kit (ThermoFisher Scientific) according to the manufacturer's instruction. […]

Test [5] deals with T1, Pin1. Briefly: Pin1 degradation in a panel of human cancer cell lines (western blot). It counts as cell-based. The conditions noted are these: all cell lines, exposed to 5 μM, 24 h (FIG. 4); read-out: Dmax (the maximal level of degradation). The protocol:
In these studies, it was evident that both agents were very effective in degrading Pin1 in all tested human cancer cell lines with DC50 values (the concentration at which 50% degradation was observed)˜500 nM and Dmax (the maximal level of degradation) close to 100% with all cell lines when exposed to 5 μM of either agent (FIG. 4).
as §2, §3

The target in test [6] is T1, Pin1. As to conditions: Pu W, et al. (2018); read-out: dissociation constant by isothermal titration calorimetric measurements; cited from earlier work. For orientation: ITC needs no label: the signal is the heat of the interaction.
In test [7] the target is T1, Pin1. As to conditions: Pinch B J, et al. (2020); read-out: IC50 value as reported by a fluorescence polarization assay; cited from earlier work. On the technique in general: In fluorescence polarisation assays a small probe gives low polarisation when free and higher when bound to something large.
Setting [8] is: Table 1, 6-h pre-incubation followed by 2-h incubation, ± SD from duplicates.

Where two headings read alike, the source gives them in different places. *1 amine or outer side, *2 acyl side, *3 side chain or, on linkers, in order; H or OH if unused. Where a SMILES comes first, the peptide text is derived from it. [ ]: non-standard residue; d: D form. The star is where a group is joined. ξ: configuration not given here. Trp(5-OMe) = COc1ccc2[nH]cc(C[C@H](N)C(=O)O)c2c1; Trp(6-Cl) = N[C@@H](Cc1c[nH]c2cc(Cl)ccc12)C(=O)O; X1 = CC(OP(=O)(O)O)[C@@H](N[*:1])C(=O)[*:2]; 2Nal = N[C@@H](Cc1ccc2ccccc2c1)C(=O)O; Pip = O=C(O)[C@@H]1CCCCN1; ξPip = O=C(O)C1CCCCN1; ClAc = O=C(CCl)*

T1 sequence (Q13526 whole entry): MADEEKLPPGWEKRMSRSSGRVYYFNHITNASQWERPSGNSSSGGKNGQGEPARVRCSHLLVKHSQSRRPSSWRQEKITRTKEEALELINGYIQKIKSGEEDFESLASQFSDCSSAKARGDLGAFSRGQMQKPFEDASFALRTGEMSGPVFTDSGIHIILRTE

Consider `COc1ccc2[nH]cc(C[C@H](NC(=O)[C@@H]3CCCCN3C(=O)[C@H](Cc3ccccc3)NC(=O)CCl)C(N)=O)c2c1` [158F10] (ClAc-Phe-[Pip]-[Trp(5-OMe)]-NH2), for which the “degradation of Pin1 (western blot)” value on Pin1 [1] is “degradation of Pin1”. The IC50 on Pin1 [2] (Table 3, ± SD from duplicates) was found to be 126 ± 5 nM. Also, at Pin1 [3] (Table 3, single transition, ± SE of four replicates), the “ΔTm (° C.)” value was −10.16 ± 0.07 °C.

On to `CN(C(=O)CCl)[C@@H](Cc1ccccc1)C(=O)N1CCCC[C@H]1C(=O)N[C@@H](CC1CNc2ccccc21)C(=O)N[C@@H](CCCNC(N)=O)C(N)=O` (stereo partly drawn) [158A12, reference compound], for which the “Pin1 degradation in cell” value on Pin1 [4] was “significant Pin1 degradation”. In addition, the IC50 at Pin1 [2] (setting [8]) worked out at 9 ± 1 nM. Moreover, the “ΔTm (° C.) 30 min” value at Pin1 [3] (± SE of four replicates) was −6.40 ± 0.04 °C. Besides, the ΔTm on Pin1 [3] was −6.4 °C.

On to `NC(=O)[C@H](Cc1c[nH]c2ccccc12)NC(=O)[C@@H]1CCCCN1C(=O)[C@H](Cc1c[nH]c2cc(Cl)ccc12)NC(=O)CCl` [158H9] (ClAc-[Trp(6-Cl)]-[Pip]-Trp-NH2), for which the Dmax on Pin1 [5] is around 100%. For the same compound, the ΔTm at Pin1 [3] is −8.41 °C.

On to `CC(C)(C)CN(C(=O)CCl)C1CCS(=O)(=O)C1` (stereo not drawn) [Sulfopin], for which the “Pin1 degradation in cell” value at Pin1 [4] was “significant Pin1 degradation”.

Take `Nc1nc(OCc2ccc(CNC(=O)C(F)(F)F)cc2)c2nc[nH]c2n1` [API-1]: the Kd on Pin1 [6] is 2900 nM.

Take `CC(=O)N[C@@H](Cc1ccccc1)C(=O)N[C@@H](C(=O)N1CCCCC1C(=O)N[C@@H](Cc1ccc2ccccc2c1)C(=O)N[C@@H](CCC(N)=O)C(N)=O)C(C)OP(=O)(O)O` (stereo partly drawn) [158A1, reference compound] (Ac-F[X1][ξPip][2Nal]Q-NH2): the IC50 on Pin1 [7] was around 3000 nM; at Pin1 [2], around 3000 nM; at Pin1 [2] (setting [8]), 2910 ± 103 nM. Besides, the “ΔTm (° C.) 30 min” value at Pin1 [3] (± SE of four replicates) is 3.40 ± 0.16 °C. Moreover, the ΔTm on Pin1 [3] worked out at 3.4 °C.

Turning to `NC(=O)[C@H](Cc1c[nH]c2ccc(F)cc12)NC(=O)[C@@H]1CCCCN1C(=O)[C@@H]1Cc2c([nH]c3ccccc23)CN1C(=O)CCl` [164A10], the Dmax on Pin1 [5] was around 100%. The ΔTm on Pin1 [3] was −8.95 °C.

The term IC50 denotes the concentration that gives 50% inhibition. What is called ΔTm is the shift of the melting midpoint relative to a reference. Usually Dmax stands for the greatest extent of degradation seen.
